Assay results from the supplement of paper PMC10307832.

Legend:
Test in all cases: relative viability (nuclei count vs DMSO), 5 days (fraction); higher = more cells survive
KIN001-266 + OSI-027 = compound: CCN1CCC(CC1)N2C=C(N=N2)CNC3=CC4=C(C(=CN=C4C(=C3)Cl)C#N)NC5=CC(=C(C=C5)F)Cl [KIN001-266] + COc1cccc2cc(-c3nc([C@H]4CC[C@H](C(=O)O)CC4)n4ncnc(N)c34)[nH]c12 [OSI-027] (partner 0.5 µM)
Outline: (§1)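 Dosing by pin tool came one day after lung cancer cell lines were seeded in 1536-well plates, using either one drug or a fixed anchor-drug dose plus five library-drug doses (not always all listed) in √10 steps. After 5 days, nuclei were counted on 4× images. Relative viability is treated-well nuclei count divided by vehicle-well nuclei count, and values are medians of duplicate plates.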

KIN001-266 + Trametinib = compound: CCN1CCC(CC1)N2C=C(N=N2)CNC3=CC4=C(C(=CN=C4C(=C3)Cl)C#N)NC5=CC(=C(C=C5)F)Cl [KIN001-266] + CC(=O)Nc1cccc(-n2c(=O)n(C3CC3)c(=O)c3c(Nc4ccc(I)cc4F)n(C)c(=O)c(C)c32)c1 [Trametinib] (partner 0.02 µM)
Outline: as §1

KIN001-266 + Linsitinib = compound: CCN1CCC(CC1)N2C=C(N=N2)CNC3=CC4=C(C(=CN=C4C(=C3)Cl)C#N)NC5=CC(=C(C=C5)F)Cl [KIN001-266] + C[C@]1(O)C[C@@H](c2nc(-c3ccc4ccc(-c5ccccc5)nc4c3)c3c(N)nccn32)C1 [Linsitinib] (partner 1 µM)
Outline: as §1

KIN001-266 + Lapatinib = compound: CCN1CCC(CC1)N2C=C(N=N2)CNC3=CC4=C(C(=CN=C4C(=C3)Cl)C#N)NC5=CC(=C(C=C5)F)Cl [KIN001-266] + CS(=O)(=O)CCNCc1ccc(-c2ccc3ncnc(Nc4ccc(OCc5cccc(F)c5)c(Cl)c4)c3c2)o1 [Lapatinib] (partner 2 µM)
Outline: as §1

Row | Cell Line | relative viability (KIN001-266 + OSI-027; first compound 0.08 µM) | relative viability (KIN001-266 + OSI-027; first compound 0.253 µM) | relative viability (KIN001-266 + OSI-027; first compound 0.8 µM) | relative viability (KIN001-266 + OSI-027; first compound 2.53 µM) | relative viability (KIN001-266 + OSI-027; first compound 8 µM) | relative viability (KIN001-266 + Trametinib; first compound 0.08 µM) | relative viability (KIN001-266 + Trametinib; first compound 0.253 µM) | relative viability (KIN001-266 + Trametinib; first compound 0.8 µM) | relative viability (KIN001-266 + Trametinib; first compound 2.53 µM) | relative viability (KIN001-266 + Trametinib; first compound 8 µM) | relative viability (KIN001-266 + Linsitinib; first compound 0.08 µM) | relative viability (KIN001-266 + Linsitinib; first compound 0.253 µM) | relative viability (KIN001-266 + Linsitinib; first compound 0.8 µM) | relative viability (KIN001-266 + Linsitinib; first compound 2.53 µM) | relative viability (KIN001-266 + Linsitinib; first compound 8 µM) | relative viability (KIN001-266 + Lapatinib; first compound 0.08 µM) | relative viability (KIN001-266 + Lapatinib; first compound 0.253 µM) | relative viability (KIN001-266 + Lapatinib; first compound 0.8 µM) | relative viability (KIN001-266 + Lapatinib; first compound 2.53 µM) | relative viability (KIN001-266 + Lapatinib; first compound 8 µM)
1 | ChaGo-K-1 | 0.657 | 0.551 | 0.553 | 0.647 | 0.459 | 0.914 | 0.915 | 0.87 | 0.637 | 0.459 |  |  |  |  |  |  |  |  |  | 
2 | EBC-1 |  |  |  |  |  |  |  |  |  |  | 1.04 | 0.896 | 0.839 | 1.01 | 0.726 | 0.219 | 0.218 | 0.209 | 0.199 | 0.201
3 | EKVX | 0.702 | 0.706 | 0.683 | 0.685 | 0.52 | 0.336 | 0.312 | 0.303 | 0.412 | 0.344 | 1.01 | 0.956 | 1.04 | 0.963 | 1.04 | 0.284 | 0.182 | 0.204 | 0.202 | 0.171
4 | EMC-BAC-2 | 0.456 | 0.448 | 0.373 | 0.419 | 0.365 | 0.896 | 0.958 | 0.842 | 0.868 | 0.855 | 0.781 | 0.792 | 0.877 | 0.86 | 0.862 | 0.906 | 0.907 | 0.879 | 0.917 | 0.942
5 | EPLC-272H | 0.306 | 0.303 | 0.242 | 0.249 | 0.264 | 0.295 | 0.273 | 0.284 | 0.27 | 0.275 | 1.26 | 1.34 | 0.842 | 1.15 | 1.16 | 1.03 | 0.982 | 1.05 | 0.732 | 0.797
6 | H3255 | 0.555 | 0.618 | 0.52 | 0.542 | 0.606 | 0.545 | 0.581 | 0.643 | 0.659 | 0.484 | 0.841 | 1.03 | 0.884 | 0.841 | 0.713 | 0.346 | 0.219 | 0.283 | 0.251 | 0.294
7 | HARA | 0.559 | 0.644 | 0.395 | 0.501 | 0.276 | 0.634 | 0.868 | 0.91 | 0.858 | 0.424 | 0.863 | 0.851 | 0.925 | 0.935 | 0.735 | 0.929 | 0.689 | 0.842 | 0.823 | 0.657
8 | HCC-15 | 0.71 | 0.699 | 0.63 | 0.524 | 0.518 | 0.413 | 0.392 | 0.388 | 0.344 | 0.328 | 0.812 | 0.886 | 0.761 | 0.734 | 0.7 | 0.779 | 0.851 | 0.731 | 0.734 | 0.646
9 | HCC-44 | 0.5 | 0.664 | 0.605 | 0.441 | 0.593 | 1.13 | 1.06 | 1.07 | 1.07 | 1.16 | 0.669 | 0.678 | 0.687 | 0.742 | 0.622 | 0.964 | 1.03 | 0.959 | 0.985 | 1.02
